From patent publication US5519115A, “Reverse antimicrobial peptides” (priority 1993, dated 1996)

Columns and labels:
isolated chloroplasts = experiment: Oxygen evolution bioassay, phytotoxicity (isolated chloroplasts); format: cell-based, Spinach (Spinacia oleracea L. var. Melody)
Description: The following procedure for the preparation of chloroplasts to use in an oxygen electrode is similar to that of Gupta et al., "Development and Use of Chlorotetracycline Fluorescence as a Measurement Assay of Chloroplast Envelope-Bound Mg^2+, "Plant Physiol. 89, (1989) 753-761. Spinach (Spinacia oleracea L. var. `Melody`) was grown in 1:1 peat/vermiculite potting mix in a growth chamber with a 10 hour light period. The chamber temperature was maintained at 21° C. (day) and 16° C. (night) during the growth period. All plants were used for chloroplast isolation after 6-8 weeks of growth.
In order to obtain an enriched chloroplast fraction, about 12 g of deribbed spinach leaves were thoroughly washed and surface dried. The leaves were then cut into small pieces, each about 1/2 inch square, and were placed in a small blender jar containing 50 mL of chilled homogenization medium (0.33M sorbitol, 50 mM Hepes-NaOH, pH 6.8, 2mM Na2 EDTA, 1 mM MnCl2, 1 mM MgCl2). The tissue was blended twice for three second intervals on high speed in a blender. The resulting homogenate was filtered through four layers of cheesecloth and two layers of miracloth (Behring Diagnostics, La Jolla, Calif.) into two chilled 30 mL glass centrifuge tubes. The filtered solution was centrifuged for 1.0 minute at 750 g (2,200 RPM) in a JS 13.1 swinging bucket rotor in a Beckman J2-21M centrifuge (Beckman Instruments, Inc., Somerset, N.J.). The supernatant was then decanted and the pellet was gently resuspended by swirling at 0° C. About 15 mL of homogenization medium was added to each tube of chloroplasts before the chloroplasts were layered onto a 40% Percoll gradient (6 mL Percoll, 9 mL homogenization medium, and 0.03 g bovine serum albumin) in a 30 mL glass centrifuge tube. These tubes were centrifuged for 4.0 minutes at 2500 g (4000 RPM) in a JS 13.1 swinging bucket rotor in a Beckman J2-21M centrifuge. The supernatant was removed and the resulting pellet was resuspended in a small amount of homogenization medium (about 500 microliters).
Plastid concentration was generally expressed on a chlorophyll basis. Chlorophyll was determined by the method of Arnon "Copper Enzymes in Isolated Chloroplasts, Polyphenol Oxidase in Beta Vulgaris," Plant Physiol. 24, (1949) 1-15. About 50 microliters of chloroplast stock suspension was added to 10 mL of 80% acetone and this solution was incubated 5.0 minutes in the dark and then centrifuged for 5.0 minutes at 500 g (1630 RPM) in a Beckman GP centrifuge. The absorbance of the acetone-chloroplast solution was monitored at 645 nm, at 663 nm and at 730 nm. The chlorophyll concentration was then calculated as 10× [(absorbance at 645 nm×20.2)+(absorbance at 663 nm×8.02)--background at 730 nm]. This gave the amount of chlorophyll in micrograms for the original 50 microliters of chloroplasts. The concentration of chloroplasts was then adjusted with homogenization medium so that 50 microliters of suspension contained 26 micrograms of chlorophyll. These chloroplasts were only active for 11/2 to 2 hours and were therefore used immediately.
An oxygen electrode (Hansatech Instruments Ltd., Kings Lynn, Norfolk, England) was used to measure oxygen evolution from isolated chloroplasts. For a detailed discussion of the method see, D. Walker, "The Use of the Oxygen Electrode and Fluorescence Probes in Simple Measurements of Photosynthesis," supra. A saturated KCl solution was placed in the electrode well and a one-inch square of rolling paper or lens paper was placed in to the electrode well so that it soaked up KCl and formed an ionic bridge. A one-inch square of teflon membrane was then prepared, being careful not to touch its surface, and was placed over the soaked paper. Using the membrane applicator, an O ring was placed over the head of the electrode, thereby securing paper and membrane across the electrode. The CB-1D control box was turned on and the system was allowed to warm up approximately one hour before calibration. […]

Cercospora sp. = experiment: Antifungal bioassay (MCIC, spore germination); format: cell-based; conditions: 10^6 spores/test; mean after 24 hours of treatment
Description: (§1) Fungi were grown on an appropriate medium, in this case a potato dextrose agar plate, for several weeks. At the end of that period, the plate was flooded with about 5 mL of sterile distilled water to harvest spores. The spore concentration was determined by use of a hemocytometer and the spore suspension was stored in a sterile tube at 4° C. until it was needed. Then 82 microliters of potato dextrose broth and 3 microliters of spore suspension (ranging from 10^5 to 10^7 spores total) were added to 12 wells in a 96 well microtiter plate for each AMPPP to be tested, with 1-4 replicate sets of 12 wells prepared for each AMPPP within a single experiment. In several instances, more than one spore concentration was used in order to determine the efficacy of certain AMPPPs as a function of the number of target spores. Stock solutions of each AMPPP were prepared at a concentration of 1 mg/mL and 0-15 microliters of each peptide stock solution were added to a single well in the microtiter plate followed by a sufficient volume of water to bring the total well volume to 100 microliters. […] Typical peptide volumes assayed were 0, 1, 2, 3, 4, 5, 6, 7, 8, 9, 10, and 15 microliters, which corresponds to a final peptide concentration in the range of 0-150 micrograms/mL. The microtiter plates were sealed with parafilm and incubated at room temperature for 48 hours. The fungal growth was observed after 24 and 48 hours by microscope using a 4× and/or a 10× objective lens. The amount of spore germination and fungal growth was recorded as a quantitative measurement at each observation time using a system of pluses and minuses: [-] meant no germination having occurred, [+] meant swollen spores with an extended germ tube, [++] meant the beginnings of mycelial growth with the overall appearance of a loose lattice, and [+++] meant a dense mycelial growth with the overall appearance of a thick opaque meshwork. The MCIC value for each AMPPP tested was then recorded, where the MCIC value is defined as the lowest peptide concentration at which no spore germination occurred (rating=[-]). […]

[1] = tested on: Helminthosporium carbonum; experiment: Antifungal bioassay (MCIC, spore germination); format: cell-based; conditions: 10^6 spores/test; mean after 24 hours of treatment
Description: as §1

Trichoderma reesei = experiment: Antifungal bioassay (MCIC, spore germination); format: cell-based; conditions: 10^6 spores/test; mean after 24 hours of treatment
Description: as §1

Substance: Met-Mag 1 dimer (head-to-tail) [Peptide No. 9]
- inhibition of oxygen evolution (isolated chloroplasts): 100%
- MCIC Values With: Cercospora sp. (Cercospora sp.): 25+/-10 micrograms per mL
- MCIC Values With: Helminthosporium carbonum [1]: 63+/-29 micrograms per mL
- MCIC Values With: Trichoderma reesei (Trichoderma reesei): 24+/-12 micrograms per mL
